Assay results as given in publication PMC4977651, “Molecular features of biguanides required for targeting of mitochondrial respiratory complex I and activation of AMP-kinase” (BMC Biology, 2016).
Several values for one entry are separate records, joined by “and”; a condition that tells them apart may be missing. Equal entries are not always repeated. Where two headings read alike, the source gives them in different places.

How the values were obtained:
[1] = target: mouse heart mitochondrial membranes (complex I) (Mus musculus, UniProt P03888+P03899+Q91WD5+Q9DC70); test: NADH:O2 oxidoreduction by mouse heart mitochondrial membranes; format: biochemical; details: for LogIC50 (best fit value): log of IC50 in mM
Protocol: (§1) Complex I and mitochondrial membranes were prepared from Bos taurus (bovine) heart. Intact mitochondria were isolated from rat liver and mouse heart and liver. Membranes were prepared from mouse heart mitochondria by 5 s bursts of sonication at 4 °C and collected by centrifugation (75,000 × g, 1 h).
Assays were performed at 32 °C in a SpectraMax 96-well plate reader. NADH:decylubiquinone oxidoreduction by complex I at 0.5 μg mL^−1 was measured in 20 mM Tris-HCl (pH 7.2), 0.15 % soy bean asolectin (Avanti Polar Lipids), and 0.15 % 3-((3-cholamidopropyl)dimethylammonium)-1-propanesulfonate (CHAPS, Merck Chemicals Ltd), with 200 μM decylubiquinone and 200 μM NADH, and monitored using ε340–380(NADH) = 4.81 mM^−1 cm^−1 [23]. Catalysis was initiated by addition of NADH and maximal rates determined by linear regression. NADH:O2 oxidoreduction by membranes was measured similarly but using 5 μg mL^−1 membranes in 10 mM Tris-HCl (pH 7.4) and 250 mM sucrose using 200 μM NADH and supplemented with 0.15 mM horse heart cytochrome c (Sigma-Aldrich Ltd.). Succinate:O2 oxidoreduction was measured using 40 μg mL^−1 membranes in 5 mM succinate in 10 mM Tris-HCl (pH 7.4) as described previously. Control experiments included NaCl (to match the ionic strength) or DMSO, as appropriate.
Experimental values are reported as mean averages ± standard deviation (SD) of technical replicates for large sample sizes and mean averages ± standard error of the mean (SEM) of technical replicates for small sample sizes. Data were analyzed by the unpaired two-tailed Student’s t test. IC50 values were determined using the standard dose-effect relationship (activity (%) = 100 × IC50 / (IC50 + [inhibitor]^m) with the Hill Slope (m) set to unity for purified complex I) and are reported with 95 % confidence intervals.

MDBK cells = test: Rotenone-sensitive oxygen consumption rate in intact MDBK cells; format: cell-based, Bos taurus; set-up: key to rotenone sensitive OCR after 40 mins of biguanide exposure / rotenone sensitive OCR after 40 mins of biguanide exposure, average: % of OCR recorded immediately before biguanide addition; details: biguanide at IC50/10; for rotenone sensitive OCR after 6 hours of biguanide exposure, % control, average / rotenone sensitive OCR after 6 hours of biguanide exposure, average: MDBK cells; for rotenone sensitive OCR after 6 hours of biguanide exposure, average: OCR normalized to OCR immediately prior to biguanide addition; for rotenone sensitive OCR after 40 mins of biguanide exposure, % control, average / rotenone sensitive OCR after 40 mins of biguanide exposure, average / rotenone sensitive OCR after 40 mins of biguanide exposure / rotenone sensitive OCR after 40 mins of biguanide exposure, % control: MDBK intact cells; for rotenone sensitive OCR after 40 mins of biguanide exposure, % control, average / rotenone sensitive OCR after 40 mins of biguanide exposure, average: average of replicates; for rotenone sensitive OCR after 40 mins of biguanide exposure / rotenone sensitive OCR after 40 mins of biguanide exposure, % control: individual replicates
Protocol: 143B (CRL-8303 from ATCC), HepG2 (85011430 from The Health Protection Agency), and MDBK (CCL-22 from ATCC) cells were grown on Dulbecco’s modified Eagle’s medium (DMEM) supplemented with 10 % fetal bovine serum (FBS, Thermo Fisher Scientific) at 37 °C in 5 % CO2. All cells were confirmed as negative for mycoplasma.
Oxygen consumption rates (OCRs) were measured using a Seahorse XF96 extracellular flux analyzer at 37 °C. For intact cell measurements, 1.4 × 10^4 143B, HepG2, or MDBK cells were plated (per well) in DMEM containing 10 % FBS into Seahorse Bioscience Inc. XF96 plates and incubated for ~12 h at 37 °C in 5 % CO2. Then, the medium was exchanged for assay buffer containing DMEM, 4.5 g L^−1 glucose, 1 mM pyruvate, 32 mM NaCl, 2 mM GlutaMAX, 15 mg L^−1 phenol red, and 20 mM HEPES (pH 7.4 at 37 °C) and the cells placed in a CO2-free incubator at 37 °C for 30 min. Basal oxygen consumption rates were established before the addition of biguanides at one-tenth of their IC50 (IC50/10), and followed for ~ 6 h before the addition of rotenone (2 μM).
Rotenone-sensitive OCRs were calculated by subtracting the rotenone-insensitive rates (determined at the end of the experiment). OCRs were normalized by dividing by the OCR recorded immediately prior to the addition of biguanide. For rate of uptake calculations, the OCRs at time points after biguanide addition were divided by the OCRs at the same time points in control experiments. Data from wells with failed port injections were excluded from the analyses. The respiratory control ratio (RCR) values (state III versus state IV respiration) were ~11 and ~6 for permeabilized MDBK and 143B cells, respectively.

mouse heart mitochondria = test: ADP-stimulated rotenone-sensitive OCR in isolated mouse heart mitochondria; format: biochemical; set-up: rotenone sensitive OCR after ADP stimulation, individual replicates / rotenone sensitive OCR after ADP stimulation, average / rotenone sensitive OCR after 15 mins, average: unit not given here; details: for rotenone sensitive OCR after ADP stimulation, % of control, average / rotenone sensitive OCR after ADP stimulation, average: average of replicates; for rotenone sensitive OCR after ADP stimulation, % of control, individual replicates: replicate 1-11; for rotenone sensitive OCR after ADP stimulation, individual replicates: replicate 1-12
Protocol: as §1
Isolated mitochondria were monitored using a Seahorse XF96 extracellular flux analyzer at 32 °C. Mouse heart mitochondria, and mouse and rat liver mitochondria were plated into XF96 plates at 4 and 16–20 μg per well, respectively, in 220 mM mannitol, 70 mM sucrose, 10 mM KH2PO4, 5 mM MgCl2, 1 mM EGTA, 0.2 % fatty acid-free BSA, and 2 mM HEPES (pH 7.4 at 37 °C) with 10 mM glutamate and 10 mM malate and adhered by centrifugation (2000 × g, 20 min, 4 °C). The medium was supplemented with a further 5 mM glutamate and 5 mM malate and the mitochondria incubated for 15 min. Then two baseline readings were taken before the biguanides were added at IC50/5. […] Rotenone (2 μM) was added at the end of the experiment. Data from wells with failed port injections were excluded from the analyses. The RCR values (state III versus state IV respiration) were 3.4, 4.8, and 4.6 for mouse heart, rat liver, and mouse liver, respectively.

mouse liver mitochondria = test: ADP-stimulated rotenone-sensitive OCR in isolated mouse liver mitochondria; format: biochemical; set-up: rotenone sensitive OCR after ADP stimulation, individual replicates / rotenone sensitive OCR after ADP stimulation, average: unit not given here; details: for rotenone sensitive OCR after ADP stimulation, % of control, average / rotenone sensitive OCR after ADP stimulation, average: average of replicates; for rotenone sensitive OCR after ADP stimulation, % of control, individual replicates / rotenone sensitive OCR after ADP stimulation, individual replicates: replicate 1-5
Protocol: as §1
Isolated mitochondria were monitored using a Seahorse XF96 extracellular flux analyzer at 32 °C. Mouse heart mitochondria, and mouse and rat liver mitochondria were plated into XF96 plates at 4 and 16–20 μg per well, respectively, in 220 mM mannitol, 70 mM sucrose, 10 mM KH2PO4, 5 mM MgCl2, 1 mM EGTA, 0.2 % fatty acid-free BSA, and 2 mM HEPES (pH 7.4 at 37 °C) with 10 mM glutamate and 10 mM malate and adhered by centrifugation (2000 × g, 20 min, 4 °C). The medium was supplemented with a further 5 mM glutamate and 5 mM malate and the mitochondria incubated for 15 min. Then two baseline readings were taken before the biguanides were added at IC50/5. Biguanides were allowed to accumulate for 15–20 min before respiration was […] by the addition of 4 mM ADP. Rotenone (2 μM) was added at the end of the experiment. Data from wells with failed port injections were excluded from the analyses. The RCR values (state III versus state IV respiration) were 3.4, 4.8, and 4.6 for mouse heart, rat liver, and mouse liver, respectively.

mouse heart mitochondrial membranes (complex I), sequence (P03899 whole entry): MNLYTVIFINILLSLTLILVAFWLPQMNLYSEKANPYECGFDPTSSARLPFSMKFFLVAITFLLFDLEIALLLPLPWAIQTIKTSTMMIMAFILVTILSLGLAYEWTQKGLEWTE
mouse heart mitochondrial membranes (complex I), sequence (P03888 whole entry): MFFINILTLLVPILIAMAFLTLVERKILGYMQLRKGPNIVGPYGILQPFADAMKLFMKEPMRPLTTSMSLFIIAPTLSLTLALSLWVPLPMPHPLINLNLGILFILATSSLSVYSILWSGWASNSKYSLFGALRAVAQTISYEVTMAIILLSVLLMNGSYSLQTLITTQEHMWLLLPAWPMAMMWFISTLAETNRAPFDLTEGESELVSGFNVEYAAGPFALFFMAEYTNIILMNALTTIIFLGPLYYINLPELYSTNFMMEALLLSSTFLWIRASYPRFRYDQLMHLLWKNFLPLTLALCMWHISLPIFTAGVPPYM
mouse heart mitochondrial membranes (complex I), sequence (Q9DC70 36-224): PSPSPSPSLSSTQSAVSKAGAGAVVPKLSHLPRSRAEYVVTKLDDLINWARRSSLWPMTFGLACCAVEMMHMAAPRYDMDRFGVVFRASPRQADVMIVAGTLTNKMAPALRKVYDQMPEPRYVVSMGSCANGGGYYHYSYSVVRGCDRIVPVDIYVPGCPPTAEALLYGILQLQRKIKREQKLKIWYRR
mouse heart mitochondrial membranes (complex I), sequence (Q91WD5 34-463): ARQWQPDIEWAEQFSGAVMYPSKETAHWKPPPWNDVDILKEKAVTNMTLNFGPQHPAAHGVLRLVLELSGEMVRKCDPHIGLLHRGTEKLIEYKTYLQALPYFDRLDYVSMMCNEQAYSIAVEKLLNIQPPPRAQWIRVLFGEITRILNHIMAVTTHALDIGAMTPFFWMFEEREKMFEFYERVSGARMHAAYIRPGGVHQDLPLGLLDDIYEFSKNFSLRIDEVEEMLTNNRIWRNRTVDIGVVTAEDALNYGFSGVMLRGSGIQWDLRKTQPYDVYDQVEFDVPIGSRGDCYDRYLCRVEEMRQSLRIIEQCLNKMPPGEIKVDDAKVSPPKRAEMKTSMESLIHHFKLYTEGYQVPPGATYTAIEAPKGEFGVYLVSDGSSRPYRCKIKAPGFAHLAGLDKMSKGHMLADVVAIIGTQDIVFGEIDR

Structure (SMILES) | HillSlope (best fit value) ([1]; Prism variable slope fit) | LogIC50 (best fit value) ([1]; Prism variable slope fit) | rotenone sensitive OCR after 6 hours of biguanide exposure, % control, average (MDBK cells) | rotenone sensitive OCR after 6 hours of biguanide exposure, average (MDBK cells) | rotenone sensitive OCR after 40 mins of biguanide exposure, % control, average (MDBK cells) | rotenone sensitive OCR after 40 mins of biguanide exposure, average (MDBK cells) | rotenone sensitive OCR after 40 mins of biguanide exposure (MDBK cells) | rotenone sensitive OCR after 40 mins of biguanide exposure, % control (MDBK cells) | rotenone sensitive OCR after ADP stimulation, % of control, average (mouse heart mitochondria) | rotenone sensitive OCR after ADP stimulation, average (mouse heart mitochondria) | rotenone sensitive OCR after ADP stimulation, % of control, individual replicates (mouse heart mitochondria) | rotenone sensitive OCR after ADP stimulation, individual replicates (mouse heart mitochondria) | rotenone sensitive OCR after ADP stimulation, % of control, average (mouse liver mitochondria) | rotenone sensitive OCR after ADP stimulation, average (mouse liver mitochondria) | rotenone sensitive OCR after ADP stimulation, % of control, individual replicates (mouse liver mitochondria) | rotenone sensitive OCR after ADP stimulation, individual replicates (mouse liver mitochondria) | other results
N=C(N)NC(N)=Nc1ccccc1 [compound 2, phenyl biguanide] | -1.093 | -0.05416 | 99.86 % control | 100.16 | 98.99 % control | 100.73 | 97.96 and 102.05 and 98.68 and 102.17 and 103.50 and 100.00 | 96.27 % control and 100.30 % control and 96.98 % control and 100.41 % control and 101.71 % control and 98.28 % control | 107.96 % of control | 261.48 | 135.56 % of control and 93.15 % of control and 89.18 % of control and 125.36 % of control and 159.10 % of control and 52.24 % of control and 102.54 % of control and 106.56 % of control | 328.33 and 225.59 and 215.99 and 303.61 and 385.34 and 126.52 and 248.35 and 258.08 | 78.67 % of control | 27.30 | 80.64 % of control and 78.05 % of control and 77.34 % of control | 27.98 and 27.08 and 26.83 | IC50 ([1]; read-out: IC50 (best fit value), Prism variable slope fit, Bottom 0, Top 100): 883 µM
NC(N)=NC(N)=NCc1ccccc1 [compound 3, 2-benzyl-1-(diaminomethylidene)guanidine] | -1.132 | 0.5023 | 18.14 % control | 18.19 | 88.51 % control | 90.06 | 86.89 and 91.07 and 89.16 and 91.81 and 91.02 and 90.42 | 85.39 % control and 89.50 % control and 87.62 % control and 90.23 % control and 89.45 % control and 88.86 % control | 28.02 % of control | 67.86 | 41.93 % of control and 30.59 % of control and 30.48 % of control and 24.44 % of control and 22.36 % of control and 21.02 % of control and 20.43 % of control and 32.91 % of control | 101.56 and 74.09 and 73.82 and 59.18 and 54.16 and 50.90 and 49.48 and 79.71 | 32.07 % of control | 11.13 | 34.06 % of control and 31.32 % of control and 34.05 % of control and 28.86 % of control | 11.82 (2×) and 10.87 and 10.01 | IC50 ([1]; Prism variable slope fit, Bottom 0, Top 100, read-out: IC50 (best fit value)): 3180 µM; remaining activity at 130 µM ([1]; inhibitor 0.13 mM, read-out: average % (rate, % of no-inhibitor control)): 99.2%; remaining activity at 250 µM ([1]; inhibitor 0.25 mM, read-out: average % (rate, % of no-inhibitor control)): 93.8%; remaining activity at 500 µM ([1]; inhibitor 0.50 mM, read-out: average % (rate, % of no-inhibitor control)): 86.3%; remaining activity at 1000 µM ([1]; inhibitor 1.00 mM, read-out: average % (rate, % of no-inhibitor control)): 85%; remaining activity at 5000 µM ([1]; inhibitor 5.00 mM, read-out: average % (rate, % of no-inhibitor control)): 35.4%; remaining activity at 10000 µM ([1]; inhibitor 10.00 mM, read-out: average % (rate, % of no-inhibitor control)): 25.3%
